Source: patent US8563578B2, “Antitumor properties of NO modified protease inhibitors” (Onconox APS, priority 2008, dated 2013)

Legend:
B16 melanoma = B16 melanoma growth in syngeneic C57BL/6 mice; format: in vivo, mouse; conditions: 10 mg/kg i.p.; for animals that developed tumors at autopsy: day 30 post tumor challenge
Protocol: In order to induce primary tumor 2×10^5 B16 melanoma cells were injected subcutaneously (s.c) in the dorsal right lumbosacral region of syngeneic C57BL/6 mice. Tumor growth was observed daily, and the drug treatment started from day 10 after implantation. […] Mice were sacrificed on day 30, tumor growth was determined by three-dimensional measurements of individual tumors from each mouse. Tumor volume was calculated as: [0.52×a×b^2], where a is the longest and b is the shortest diameter as described previously (Maksimovic-Ivanic et al. 2008).
FIG. 7. […] Tumor volumes were determined 30 days after tumor implantation, as indicated in Materials and methods.

tyrosinase of B16 cells = assay: Tyrosinase activity assay, B16; format: cell-based, mouse; conditions: 18.8 μM, 24 h
Protocol: Tyrosinase activity was determined by measuring the rate of oxidation of L-DOPA^34. Briefly, sub-confluent cultures in 6-well plate were lysed in 100 μl phosphate buffer pH 6.8-1% Triton X-100 and than centrifuged at 10000 rpm for 5 min. 40 μl of each extract was mixed with 100 μl of L-DOPA substrate solution (2 mg/ml). Enzymatic reaction was carried out at 37° C. and the absorbance at 570 nm was read every 10 min for at least 1 h. The final activity was corrected by the total amount of protein estimated by Bradford assay. For melanin determination cells were incubated in 6 well plate for 24 h, trypsinized, counted and than lysed in 100 μl of 1M NaOH. 400 μl of distilled water was added and samples were incubated at 60° C. for 1 h. Thereafter, absorbance of dissolved dye was measured at 492 nm.
FIG. 5. […] Cell morphology was assessed by light microscopy (A). Markers of cell differentiation of C6 and B16 cells, galactocerebroside, GFAP and MBP were determined by cELISA and melanin and tyrosinase activity were determined as described in material and methods (B). Cyclin D3 and p53 expression were evaluated by cELISA (C, upper panels), immunocytochemistry (C, middle panel) and Western blot (C, lower panel). The results were presented as mean±SD from three independent experiments. *p<0.05, refers to untreated cultures.

[1] = test system: transformed human (HeLa, BT20, HCC 1419, PC-3) and rodent (C6, B16) cell lines; assay: Cell viability by crystal violet assay, tumor cell line panel; format: cell-based, rat, mouse; conditions: 24 h
Excerpt: Rat glioma C6 and human glioblastoma U251 cell lines were a kind gift from Dr. Pedro Tranque (Universidad de Castilla-La Mancha, Albacete, Spain), murine melanoma B 16, and human adenocarcinoma HeLa, were a kind gift from Dr. Sinisa Radulovic (Institute for Oncology and Radiology of Serbia, Belgrade, Serbia) while mouse fibrosarcoma L929 was obtained from the European Collection of Animal Cell Cultures (Salisbury, UK). Human breast HCC1419 and prostate PC-3 cells were purchased from LGC Promochem srl (Venezia, Italy). Primary mouse fibroblasts and rat astrocytes were prepared as described (Mijatovic et al. 2004). Cells were grown in HEPES-buffered RPMI 1640 medium supplemented with 5% FCS, 2 mM glutamine, 0.01% sodium pyruvate, 5×10^−5 M 2-mercaptoethanol, and antibiotics (culture medium) at 37° C. in a humidified atmosphere with 5% CO2. After the conventional trypsinization procedure cells were seeded at 1×10^4/well in 96-well, 2×10^5/well in 6-well plate or 3×10^4/well in 4-well chamber slide, cultivated overnight, and then exposed to drug. […]
Reduction of 3-4,5-dimethylthiazol-2-yl)-2,5-diphenyltetrazolium bromide (MTT) to formazan depends on mitochondrial activity of cultured cells, absorption of crystal violet dye correlates with the number of adherent, live cells, while the release of cytosolic lactate dehydrogenase (LDH) indicates the disruption of membrane integrity caracteristic for necrotic cells. […] Mitohondrial-dependent production of formazan and intensity of absorbed crystal violet by adherent cells were assessed by an automated microplate reader at 570 nm, while the pyruvate-mediated conversion of 2,4-dinitrophenylhydrazine into visible hydrazone precipitate in LDH assay was measured at 492 nm. The % of cytotoxicity as indicated by LDH release was calculated as: (E−C)/(T−C)×100, where E is the experimental absorbance of cell cultures, C is the control absorbance of cell-free culture medium, and T is the absorbance corresponding to the maximal (100%) LDH release of Triton-lysed cells.
FIG. 2. […] Cell viability was then evaluated by CV test. […]

C6 cells = assay: Autophagy detection by acridin orange staining, C6; format: cell-based, rat; conditions: 18.8 μM, 24 h
Protocol: Vital dye acridin orange (AO) was used for detection of autophagy. The intensity of red fluorescence correlates with acidity and volume of present autophagic organelles (Kanzawa et al. 2004). Assay was performed as follows: the cells were cultured in 6-well plate (2×10^5/well) 24 h in the presence of the drug, detached with trypsin and stained with 1 μg/ml AO in RPMI without phenol red for 15 min at RT. After the end of incubation period cells were washed and resuspended in PBS. Green and red fluorescence emission was measured with a FACSCalibur and analyzed using CellQuest software.
FIG. 4. […] Results are calculated as indicated in materials and methods and presented as mean±SD from representative of three independent experiment (*p <0.05). […] After 24 h of cultivation without or with drugs, cells were stained with AO orange (B) or PI (C) and analyzed by flow cytometry. The data are presented as mean±SD from three independent experiments. *p<0.05, refers to untreated cultures. […] Cells were incubated with 18.8 μM of Sag or Saq-NO2 for 24 h. After that, the drugs were either removed or not from the cells and incubated for additional 24 h. Cell viability was determined by CV test after 24 and 48 h of incubation (right panels). The data are presented as mean±SD from three independent experiments. *p<0.05, refers to untreated cultures.

[2] = 15 consecutive days from day 10

For `CC(C)(C)NC(=O)[C@@H]1C[C@@H]2CCCC[C@@H]2CN1C[C@@H](O)[C@H](Cc1ccccc1)NC(=O)[C@H](CC(N)=O)NC(=O)c1ccc2ccccc2n1` [Saq, Saquinavir, reference compound], the “animals without tumors with strong inflammation of peritoneum” value (B16 melanoma; 15 consecutive days) was 4 animals, the “loss of body weight from initial body weight” value (B16 melanoma; 15 consecutive days) was 10% and the tumor volume (B16 melanoma; 15 consecutive days from day 10, day 30) was “significantly reduced volume”. The “animals that developed tumors at autopsy” value (B16 melanoma; [2]) was 3/9, the tyrosinase activity (tyrosinase of B16 cells) was “increased” and the “anti-tumor potential (viability of tumor cell lines)” value [1] was “strong anti-tumor potential”. The “amount of acidic vesicles in the cytoplasm (autophagy)” value (C6 cells) was “absence of autophagia”.

With `CC(C)(C)NC(=O)[C@@H]1C[C@@H]2CCCC[C@@H]2CN1C[C@@H](O[N+](=O)[O-])[C@H](Cc1ccccc1)NC(=O)[C@H](CC(N)=O)NC(=O)c1ccc2ccccc2n1` [Saq-NO2, nitric ester of Saquinavir] the “raise of body weight, of initial body weight” value (B16 melanoma; 15 consecutive days) was 13%, the “visible signs of toxicity” value (B16 melanoma; 15 consecutive days) was “no any visible signs of toxicity” and the “animals that developed tumors at autopsy” value (B16 melanoma; [2]) was “one”. For the same compound, the tyrosinase activity (tyrosinase of B16 cells) was “slight but significant decrease”, the “anti-tumor potential (viability of tumor cell lines)” value [1] was “strong anti-tumor potential” and the “IC50 value relative to the parent drug” value ([1]; tumor cell lines) was “two to four fold lower”. The “amount of acidic vesicles in the cytoplasm (autophagy)” value (C6 cells) was “absence of autophagia”.
